Test results as given in US10253251B2, “Nanomatrix separation of chromophores and uses thereof in luminescent devices” (RAMOT AT TEL-AVIV UNIVERSITY LTD., priority 2010, dated 2019).
Values joined by “and” are separate entries in the source; they are usually repeats but may differ in a detail not shown here. Equal entries are not always repeated.

Assays:
[1] = test system: Bovine Submaxillary Mucin (BSM); test: Loading capacity of BSM glycoprotein for hydrophobic ligands (ligand uptake); type: binding; conditions: for BSM NBL (average number of bound ligands per BSM monomer): LUP multiplied by BSM monomer-to-ligand molecular weight ratio; for BSM LUP (ligand uptake percentage, ligand-to-BSM weight ratio): extracted ligand (hydrolysis-extraction, UV-vis) divided by BSM protein (PAS assay)
Source text: In order to determine the loading capacity of BSM glycoprotein for the examined ligands, elemental analysis measurements were preformed. The carbon content of each complex (in the case of C60 and MWNT containing complexes) was compared to the carbon content found in the native BSM. This was used to determine the amount of ligand in the complex and by that, the mucin-ligand weight ratio (ligand uptake percentage—LUP, Table 1).
In this procedure, the amount of the BSM protein in the mucin complex was analyzed by a periodic acid/Schiff (PAS) assay.
In more detail, in order to determine the amount of C60, a hydrolysis-extraction process was used which included heating of the complex in a heterogeneous mixture of hydrochloric acid and chloroform at 80° C., in a sealed vessel, and then the amount of a chloroform-extracted ligand was determined by UV-vis spectroscopy.
Additional calculation determined the average number of bound ligand (NBL) per BSM monomer by multiplication of the LUP value by the BSM monomer-to-ligand molecular weight ratio (Eq. 2).
In order to ascertain the capacity of BSM glycoprotein for various ligands, the amounts of Ant, Bap and Cor ligands in corresponding BSM complexes were determined. The amount of the BSM protein in each BSM complex was analyzed by a periodic acid/Schiff (PAS) assay.
In order to determine the amount of ligand in each complex, the above-described hydrolysis-extraction process was employed and determined the amount of chloroform-extracted ligand by UV-vis spectroscopy.
The LUP values were calculated by dividing the amount of the extracted ligand by the amount of the BSM protein present in the complex. […] The average number of bound ligands (NBL) per BSM monomer was also calculated by multiplication of the LUP value by the BSM monomer-to-ligand molecular weight ratio, as discussed above.
(§1) To a solution of BSM or deglycosylated BSM protein (4 mg mL^−1, 1.5 mL) in sodium phosphate buffer (2 mM, pH 7.2) a solid ligand (1 mg) was added at room temperature and the mixture was stirred at 500-700 rpm for 48 hrs. After that time, the reaction mixture was filtered through a 0.45 μm filter and the solution was loaded on a Sephadex G-25 gel-permeation column (Pharmacia Biotech). Protein complexes were eluted with a sodium phosphate buffer (20 mM, pH 7.2) and elution was monitored by UV-vis spectroscopy.
(§2) The amount of BSM or deglycosylated BSM protein in complexes was determined by using a standard periodic acid/Schiff assay (Sigma-Aldrich). The amount of a ligand in each complex was determined by UV-vis spectroscopy after protein hydrolysis and quantitative extraction of the ligand by chloroform. To a sample of complex in a sodium phosphate buffer (1 mL, 20 mM, pH 7.2), chloroform (1 mL) and hydrochloric acid (1 mL, 12 M) were added at room temperature. The reaction mixture was sealed in a glass pressure vessel and heated at 80° C. with vigorous stirring for 3 hrs. After cooling to a room temperature, the organic phase containing extracted ligand was analyzed by UV-vis spectroscopy.

[2] = test system: deglycosylated form of BSM (dBSM); test: Loading capacity of deglycosylated BSM (dBSM) for hydrophobic ligands; type: binding, bovine; conditions: for dBSM NBL (number of bound ligands per dBSM monomer) / dBSM UP (%): deglycosylated BSM
Experimental: To evaluate this assumption, a deglycosylated form of BSM (dBSM) was prepared and repeated binding experiments with this modified protein were carried out. Complexes of C60 with dBSM were prepared as described above for the complexation with BSM.
dBSM was prepared by base-catalyzed β-elimination of periodate-oxidized glycans, using method reported by Kim and coworkers.
A deglycosylated form of BSM (dBSM) was prepared and the binding experiments with this protein were repeated. Complexes of Ant, Bap and Cor ligands with dBSM were prepared as described above for the complexation with BSM. dBSM was prepared as described above in the context of fullerene, nanotubes, and inorganic nanostructures.
A solution of BSM protein (100 mg) in NaOH (0.1 M, 10 mL) was stirred at room temperature for 30 min. The resulting solution was cooled to 4° C. NaIO4 (100 mM) in acetate buffer (100 mM, pH 4.5) was added and the mixture was stirred overnight at 4° C. After that time, glycine (200 mg) was added and the reaction mixture was allowed to warm to room temperature and was stirred for 30 min. NaOH (1.0 M, 1 mL) was added and the solution was stirred for an additional 30 min. The resulting solution was dialyzed against deionized water overnight and was then centrifuged and lyophilized. The degree of deglycosylation was measured by using a standard periodic acid/Schiff assay (Sigma-Aldrich).
as §1, §2

[3] = Binding/dissolution of hydrophobic ligands by oligosaccharide: arabic acid; conditions: dissolved ligand divided by amount of oligosaccharide
Experimental: (§3) The subsequent series of complementary experiments was designed to examine capabilities of different size oligosaccharides to bind selected hydrophobic ligands.
(§4) Representative oligosaccharides, including β-cyclodextrin, starch, arabic acid and lactose, were incubated with C60, according to the described above protocol for the BSM complexes preparation. […] Therefore, it is believed that interactions between the saccharide residues and the polypeptide backbone in a sugar-substituted polypeptide dictate certain arrangements of the saccharide moieties in space, and these arrangements play a role in the complexation of various hydrophobic materials.
(§5) The subsequent series of complementary experiments was designed to examine capabilities of different size oligosaccharides to bind selected hydrophobic ligands. Representative oligosaccharides, including β-cyclodextrin, starch, arabic acid and lactose, were incubated with Ant, Bap and Cor ligands, according to the described above protocol for the BSM complexes preparation. The LUP values were calculated by dividing the amount of the dissolved ligand by the amount of the oligosaccharide present in the complex (if formed). No clear preference was for binding of particular ligands to certain oligosaccharides. In comparison to BSM, the dissolution capability of arabic acid was drastically lower for all tested ligands. It was practically negligible in the cases of lactose, β-cyclodextrin and starch (Table 1).

[4] = Binding/dissolution of hydrophobic ligands by oligosaccharide: starch; conditions: dissolved ligand divided by amount of oligosaccharide
Experimental: as §3, §4, §5

[5] = Binding/dissolution of hydrophobic ligands by oligosaccharide: β-cyclodextrin; conditions: dissolved ligand divided by amount of oligosaccharide
Experimental: as §3, §4
as §5, with “It was practically negligible in the cases of lactose, β-cyclodextrin and starch (Table 1).” left out

[6] = Incubation of representative oligosaccharides with C60, detection in solution by UV-vis or SEC-HPLC; type: physicochemical; conditions: β-cyclodextrin, starch, arabic acid and lactose
Experimental: as §3, §4

SMILES	BSM NBL (average number of bound ligands per BSM monomer) [1]	BSM LUP (ligand uptake percentage, ligand-to-BSM weight ratio) [1]	dBSM NBL (number of bound ligands per dBSM monomer) [2]	dBSM UP (%) [2]	Arabic Acid LUP [3]	Starch LUP [4]	BSM LUP (ligand uptake percentage, ligand-to-BSM weight ratio) ([1]; listed as Coronene)	average number of bound ligand (NBL) per BSM monomer [1]	uptake capacity of dBSM, ligands per monomer [2]	β-Cyclodextrin LUP [5]	C60 detected in the solution after incubation with oligosaccharides [6]
c1ccc2cc3ccccc3cc2c1 [Ant, anthracene]	43 ± 9	4.5% and 4.5 ± 0.9%	2.2 ± 0.3	0.28 ± 0.06%	0.56 ± 0.11%	–	–	–	–	–	–
c1ccc2c(c1)cc1ccc3cccc4ccc2c1c34 [Bap, benzo[a]pyrene]	36 ± 8	5.4 ± 1.1%	1.2 ± 0.2	0.23 ± 0.05%	0.09 ± 0.02%	0.11 ± 0.02%	–	–	–	–	–
c1cc2ccc3ccc4ccc5ccc6ccc1c1c2c3c4c5c61 [Cor, coronene]	44 ± 9	7.8 ± 1.5%	2.1 ± 0.2	0.61 ± 0.12%	0.18 ± 0.04%	0.18 ± 0.04%	7.7%	–	–	–	–
c12c3c4c5c1c1c6c7c2c2c8c3c3c9c4c4c%10c5c5c1c1c6c6c%11c7c2c2c7c8c3c3c8c9c4c4c9c%10c5c5c1c1c6c6c%11c2c2c7c3c3c8c4c4c9c5c1c1c6c2c3c41 [Ligand C60, C60]	36 ± 6	15.1% and 15.1 ± 2.4%	1.9 ± 0.1	1.4% and 1.41 ± 0.28%	–	0.35 ± 0.07%	–	40 ligands per monomeric unit of BSM	2 ligand molecules per monomeric unit	0.12 ± 0.02%	no C60 was detected
